Paper PMC7312733, “From Graphite to Laccase Biofunctionalized Few-Layer Graphene: A “One Pot” Approach Using a Chimeric Enzyme” (International Journal of Molecular Sciences, 2020)

Biological target: T1, POXA1b (Pleurotus ostreatus, UniProt O60199)
T1 construct: wild-type laccase secreted by Pichia pastoris; concentrated and dialysed supernatant, not further purified
T1 sequence (O60199 21-533): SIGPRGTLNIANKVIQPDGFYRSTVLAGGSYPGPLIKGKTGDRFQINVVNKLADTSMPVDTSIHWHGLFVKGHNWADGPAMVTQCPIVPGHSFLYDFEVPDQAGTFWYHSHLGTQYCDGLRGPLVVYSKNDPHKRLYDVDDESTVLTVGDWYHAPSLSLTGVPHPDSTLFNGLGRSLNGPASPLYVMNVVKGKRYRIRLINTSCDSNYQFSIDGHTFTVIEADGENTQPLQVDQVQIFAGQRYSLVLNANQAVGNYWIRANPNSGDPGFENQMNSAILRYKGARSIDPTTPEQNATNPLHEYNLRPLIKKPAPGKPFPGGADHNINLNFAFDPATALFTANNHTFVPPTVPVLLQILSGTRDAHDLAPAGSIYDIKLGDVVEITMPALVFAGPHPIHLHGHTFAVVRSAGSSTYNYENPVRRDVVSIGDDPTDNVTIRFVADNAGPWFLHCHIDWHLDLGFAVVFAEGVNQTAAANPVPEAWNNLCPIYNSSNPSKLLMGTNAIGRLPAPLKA
Assay: spectrophotometric oxidation assay at […] nm
Format: biochemical
Conditions: 2 mM ABTS, 0.1 M sodium citrate pH 3.0, room temperature

Q: Which “spectrophotometric oxidation assay at 420 nm” value does the source give for `CCn1c(=NN=c2sc3cc(S(=O)(=O)O)ccc3n2CC)sc2cc(S(=O)(=O)O)ccc21` [ABTS, 2,2′-azino-bis(3-ethylbenzothiazoline-6-sulphonic acid)] here?
A: The value was “The laccase activity was assayed at room temperature, monitoring the oxidation of ABTS”.
